From paper PMC12019328, “Discovery of an ApoE4-targeted small-molecule SirT1 enhancer for the treatment of Alzheimer’s disease” (Scientific Reports, 2025)

Assay: Liver microsome stability
Format: in vitro ADME
Conditions: pH 7.4; human liver microsomes 0.5 mg/mL, NADPH, 37 °C; read-out: Microsomal stability t1/2
Description: page 6: A03 DDL-214 Figure S3B. SirT1 protein levels in N2a-E4 cells after A03 and DDL-214 treatment. Compound treatment was done at 5 and 50 µM. SirT1 levels were measured by AlphaLISA followed and normalized to protein concentration DDL-218 Physiochemical Properties Physiochemical properties of DDL-218 are shown in Table S2. Brain Tissue Binding [fu,bound (%)] Brain tissue was homogenized in PBS (pH 7.4) (1: 3 weight(mg)/volume(µL)) and the protein concentration of was determined using the Micro BCA™ Protein Assay Kit (Thermo Fisher Scientific, Cat#23235). Brain homogenate was diluted to 20 mg/mL in PBS (pH 7.4) and added to Slide-A-Lyzer™ MINI Dialysis Devices, 10K MWCO dialysis cups (Thermo Fisher Scientific, Cat#PI88401) in 48-well plate containing PBS (500 µL; pH 7.4). 1 µL of 1 mM compound was added to the brain homogenate (Final Concentration: 2 µM compound, 0.5% DMSO) and incubated on a rocker for 4.5 hours at 37 °C. […] The % of the unbound drug (fu,bound) was calculated using the following equation: fu,bound = [normalized peak area in buffer side / normalized peak area in brain side] x 100 Liver Microsome Stability [t1/2 (min)] […] An aliquot (50 µL) of each supernatant was analyzed by LC-MS/MS. […] Aliquots (50 µL) of supernatant were analyzed by LC-MS/MS to create the standard curve. […]

Work on `CC(N)C(=O)OC(C)(C)Cc1ccncc1` (stereo not shown) [DDL-218] yielded a half-life of over 2.33 h.
